For assay [1], the target named is T1, SMYD3 (Homo sapiens (Human), UniProt Q9H7B4). The experiment in a line: SMYD3 biochemical assay (SPA, 3H-SAM methylation of MEKK2 protein substrate). The following applies: read-out: SMYD3 Biochem IC50*. The method, boiled down:
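Enzyme: untagged full-length human SMYD3 from E. coli; substrate GST-tagged MEKK2 from insect cells. Buffer 25 mM Tris-Cl pH 8.0, 1 mM TCEP, 0.005% BSG/Tween 20. 30 min compound–enzyme preincubation at RT; 3H-SAM/MEKK2 start; stop with cold SAM (100 uM final); SPA readout in cpm.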

For assay [2], the target named is T1, SMYD3. The experiment in a line: SMYD3 cell assay (Trimethyl-MEKK2 In-Cell Western in 293T/17 cells). Type of assay: cell-based. The following applies: read-out: SMYD3 Cell IC50*. The method, boiled down: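 In-Cell Western readout: methanol-fixed cells stained for trimethyl-MEKK2 and flag tag, ratio per well normalized to DMSO and background controls.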

T1 sequence (Q9H7B4 whole entry): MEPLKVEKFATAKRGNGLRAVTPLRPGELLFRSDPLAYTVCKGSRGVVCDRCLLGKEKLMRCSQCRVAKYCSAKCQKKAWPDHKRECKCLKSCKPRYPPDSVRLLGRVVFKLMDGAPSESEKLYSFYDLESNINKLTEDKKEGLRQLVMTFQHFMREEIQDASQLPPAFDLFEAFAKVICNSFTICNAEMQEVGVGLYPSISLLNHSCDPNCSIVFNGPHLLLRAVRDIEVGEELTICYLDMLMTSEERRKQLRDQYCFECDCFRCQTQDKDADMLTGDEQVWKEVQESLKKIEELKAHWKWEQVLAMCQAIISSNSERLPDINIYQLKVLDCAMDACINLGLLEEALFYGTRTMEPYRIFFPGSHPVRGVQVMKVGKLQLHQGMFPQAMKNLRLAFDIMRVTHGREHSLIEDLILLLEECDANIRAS

In the case of `O=C(N[C@H]1C[C@H]2CC[C@@H](C1)N2S(=O)(=O)[C@H]1CC[C@H](NCc2ccccc2)CC1)c1cc(C2CC2)on1` [compound 776, N-((1R,3R,5S)-8-(((1r,4R)-4-(benzylamino)cyclohexyl)sulfonyl)-8-azabicyclo[3.2.1]octan-3-yl)-5-cyclopropylisoxazole-3-carboxamide], the results for the IC50 in assay [1] and in assay [2] were 1.12 nM and 27.6 nM, respectively.
For `CCC[C@@H]1C[C@H](NC(=O)c2cc(C3CC3)on2)CCN1S(=O)(=O)CC1CCN(C)CC1` [compound 777, 5-cyclopropyl-N-((2R,4R)-1-(((1-methylpiperidin-4-yl)methyl)sulfonyl)-2-propylpiperidin-4-yl)isoxazole-3-carboxamide], the IC50 – broadly, the concentration at which inhibition is half-maximal – in assay [1] stood at 1.14 nM; in assay [2], 17 nM.
`O=C(N[C@H]1C[C@H]2CC[C@@H](C1)N2S(=O)(=O)CC1CCN(Cc2ccc(F)cc2)CC1)c1cc(C2CC2)on1` [compound 778, 5-cyclopropyl-N-((1R,3r,5S)-8-(((1-(4-fluorobenzyl)piperidin-4-yl)methyl)sulfonyl)-8-azabicyclo[3.2.1]octan-3-yl)isoxazole-3-carboxamide]: the IC50 came out at 1.18 nM in assay [1] and 44.8 nM in assay [2].
For `CCc1cc(C(=O)N[C@H]2C[C@H]3CC[C@@H](C2)N3S(=O)(=O)CC2CCN(CCCC(F)(F)F)CC2)no1` [compound 779, 5-ethyl-N-((1R,3r,5S)-8-(((1-(4,4,4-trifluorobutyl)piperidin-4-yl)methyl)sulfonyl)-8-azabicyclo[3.2.1]octan-3-yl)isoxazole-3-carboxamide], in that order: 1.2 nM and 28.1 nM.
For `C[C@H]1C[C@@H](NC(=O)c2cc(C3CC3)on2)CCN1S(=O)(=O)N1CCC(N(C)CCO)CC1` [compound 780, 5-cyclopropyl-N-((2S,4S)-1-((4-((2-hydroxyethyl)(methyl)amino)piperidin-1-yl)sulfonyl)-2-methylpiperidin-4-yl)isoxazole-3-carboxamide], in that order: 1.21 nM and 23.9 nM.
For `CCCN1CCC(CS(=O)(=O)N2[C@@H]3CC[C@H]2C[C@@H](NC(=O)c2cc(C4CC4)on2)C3)CC1` [compound 781, 5-cyclopropyl-N-((1R,3r,5S)-8-(((1-propylpiperidin-4-yl)methyl)sulfonyl)-8-azabicyclo[3.2.1]octan-3-yl)isoxazole-3-carboxamide], in that order: 1.22 nM and 27 nM.
Regarding `CN1CCC2(CC1)CN(S(=O)(=O)N1[C@@H]3CC[C@H]1C[C@@H](NC(=O)c1cc(C4CC4)on1)C3)C2` [compound 782, 5-cyclopropyl-N-((1R,3r,5S)-8-((7-methyl-2,7-diazaspiro[3.5]nonan-2-yl)sulfonyl)-8-azabicyclo[3.2.1]octan-3-yl)isoxazole-3-carboxamide], the IC50 in assay [1] is 1.23 nM; in assay [2], 30.1 nM.
For `C[C@H]1C[C@@H](NC(=O)c2cc(C3CC3)on2)CCN1S(=O)(=O)C1CCC(CN)C1` (stereo partly drawn) [compound 783, N-((2S,4S)-1-((3-(aminomethyl)cyclopentyl)sulfonyl)-2-methylpiperidin-4-yl)-5-cyclopropylisoxazole-3-carboxamide], in that order: 1.24 nM and 51.7 nM.
Taken in the same sequence, the figures for `C[C@H]1C[C@@H](NC(=O)c2cc(C3CC3)on2)CCN1S(=O)(=O)C[C@@H]1CC[C@@H](N)C1` [compound 784, N-((2S,4S)-1-((((1R,3R)-3-aminocyclopentyl)methyl)sulfonyl)-2-methylpiperidin-4-yl)-5-cyclopropylisoxazole-3-carboxamide] were 1.29 nM and 39.3 nM.
Taken in the same sequence, the figures for `CCN1CCC(CS(=O)(=O)N2[C@@H]3CC[C@H]2C[C@@H](NC(=O)c2cc(C4CC4)on2)C3)CC1` [compound 785, 5-cyclopropyl-N-((1R,3r,5S)-8-(((1-ethylpiperidin-4-yl)methyl)sulfonyl)-8-azabicyclo[3.2.1]octan-3-yl)isoxazole-3-carboxamide] were 1.36 nM and 44.1 nM.
For `CN[C@H]1CC[C@H](S(=O)(=O)N2[C@@H]3CC[C@H]2C[C@@H](NC(=O)c2cc(C4CC4)on2)C3)CC1` [compound 786, 5-cyclopropyl-N-((1R,3R,5S)-8-(((1r,4R)-4-(methylamino)cyclohexyl)sulfonyl)-8-azabicyclo[3.2.1]octan-3-yl)isoxazole-3-carboxamide], the values for the IC50 in assay [1] and in assay [2] were 1.37 nM and 35.8 nM, respectively.
On to `CC(C)N1CCC(CS(=O)(=O)N2[C@@H]3CC[C@H]2C[C@@H](NC(=O)c2cc(C4CC4)on2)C3)CC1` [compound 787, 5-cyclopropyl-N-((1R,3r,5S)-8-(((1-isopropylpiperidin-4-yl)methyl)sulfonyl)-8-azabicyclo[3.2.1]octan-3-yl)isoxazole-3-carboxamide], for which the IC50 in assay [1] amounted to 1.38 nM; in assay [2], 38.6 nM.
Turning to `CCc1cc(C(=O)N[C@H]2C[C@H]3CC[C@@H](C2)N3S(=O)(=O)[C@H]2CC[C@H](NCCO)CC2)no1` [compound 788, 5-ethyl-N-((1R,3R,5S)-8-(((1r,4R)-4-((2-hydroxyethyl)amino)cyclohexyl)sulfonyl)-8-azabicyclo[3.2.1]octan-3-yl)isoxazole-3-carboxamide], the IC50 in assay [1] was determined as 1.42 nM; in assay [2] it was 30.8 nM.
Consider `CCc1cc(C(=O)N[C@H]2C[C@H]3CC[C@@H](C2)N3S(=O)(=O)[C@H]2CC[C@H](N)CC2)no1` [compound 789, N-((1R,3R,5S)-8-(((1r,4R)-4-aminocyclohexyl)sulfonyl)-8-azabicyclo[3.2.1]octan-3-yl)-5-ethylisoxazole-3-carboxamide], for which the IC50 in assay [1] turned out to be 1.59 nM; in assay [2] it was 31.9 nM.
Regarding `C[C@H]1CN(S(=O)(=O)[C@H]2CC[C@H](N)CC2)CC[C@H]1NC(=O)c1cc(C2CC2)on1` [compound 790, N-((3S,4R)-1-(((1r,4S)-4-aminocyclohexyl)sulfonyl)-3-methylpiperidin-4-yl)-5-cyclopropylisoxazole-3-carboxamide], the IC50 was 1.81 nM in assay [1] and 56 nM in assay [2].
Taken in the same sequence, the figures for `O=C(N[C@H]1C[C@H]2CC[C@@H](C1)N2S(=O)(=O)N1CCC(NCCc2ccccc2)CC1)c1cc(C2CC2)on1` [compound 791, 5-cyclopropyl-N-((1R,3r,5S)-8-((4-(phenethylamino)piperidin-1-yl)sulfonyl)-8-azabicyclo[3.2.1]octan-3-yl)isoxazole-3-carboxamide] were 1.82 nM and 40.4 nM.
On to `O=C(N[C@H]1C[C@H]2CC[C@@H](C1)N2S(=O)(=O)N1CCC(NCCO)CC1)c1cc(C2CC2)on1` [compound 792, 5-cyclopropyl-N-((1R,3r,5S)-8-((4-((2-hydroxyethyl)amino)piperidin-1-yl)sulfonyl)-8-azabicyclo[3.2.1]octan-3-yl)isoxazole-3-carboxamide], for which the IC50 was 1.85 nM in assay [1] and 44.9 nM in assay [2].
Consider `CCc1cc(C(=O)N[C@H]2CCN(S(=O)(=O)N3CCC(N)CC3)[C@@H](C)C2)no1` [compound 793, N-((2S,4S)-1-((4-aminopiperidin-1-yl)sulfonyl)-2-methylpiperidin-4-yl)-5-ethylisoxazole-3-carboxamide], for which the IC50 was 1.85 nM in assay [1] and 26.3 nM in assay [2].

The values above are taken from patent US10577363B2, “Substituted piperidine compounds” (EPIZYME, INC., priority 2014, dated 2020).
